The target of this test is SnDHAD (Synechocystis sp. PCC 6803, UniProt P74689). Put plainly: DHAD activity inhibition assay. Format: biochemical. The settings on record: read-out: % inhibition at 0.5 mM.

Structures are written as SMILES.

Sequence of SnDHAD (P74689 whole entry): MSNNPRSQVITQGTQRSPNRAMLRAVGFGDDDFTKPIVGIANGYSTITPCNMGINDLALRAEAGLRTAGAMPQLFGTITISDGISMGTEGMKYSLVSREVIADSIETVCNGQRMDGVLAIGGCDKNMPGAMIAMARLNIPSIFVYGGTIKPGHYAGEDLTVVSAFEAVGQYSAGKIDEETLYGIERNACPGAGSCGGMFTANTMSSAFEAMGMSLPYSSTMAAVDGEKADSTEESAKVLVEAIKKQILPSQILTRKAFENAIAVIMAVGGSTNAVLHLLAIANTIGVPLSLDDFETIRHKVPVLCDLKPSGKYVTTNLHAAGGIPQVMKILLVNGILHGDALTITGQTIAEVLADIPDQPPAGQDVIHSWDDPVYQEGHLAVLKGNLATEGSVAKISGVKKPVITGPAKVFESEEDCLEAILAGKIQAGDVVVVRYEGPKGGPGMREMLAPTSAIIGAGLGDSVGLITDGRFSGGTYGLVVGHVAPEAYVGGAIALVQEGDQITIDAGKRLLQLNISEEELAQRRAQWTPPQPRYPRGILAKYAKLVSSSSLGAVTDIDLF

With `O=C(O)C(O)C(=O)O` [Tartronic acid], the inhibition at 500 µM is roughly 35%.

As a reminder, the inhibition is the percentage by which the read-out fell short of the control.

The values are drawn from paper PMC8162731 (ACS chemical biology, 2020).
